These results are taken from US20240398771A1, “TREATMENT OF SCLERODERMA AND RAYNAUD'S SYNDROME” (Aisa Pharma, Inc., priority 2023, published 2024).

The subject of series [1] is participants with SSc-RP. The experiment in a line: Pain score (11-point Likert scale) recorded during weekly RP attacks. As to conditions: Tadalafil 5 mg (n = 4); Raynaud's pain, Table G. It counts as in vivo, human. The source says:
The relevant metrics measured by this tool daily are: • Study medication • SSc-RP symptoms (Reporting an attack including duration of attack) • Severity of the attack considering all symptoms of the attack e.g. tingling, numbness, pain, color changes (VAS 0-10 cm scale) • Participant's location at the time of the attack (inside home/outside home) • Selecting symptoms experienced during the attack (tingling, numbness, pain, color changes, other) • Pain rating during the attack (11-point Likert scale) • The RCS based on how much difficulty participants had with Raynaud's today, how many attacks the participant had, and how long they lasted. Participants will also be asked to consider how much pain, numbness, or other symptoms the Raynaud's caused in fingers (including painful sores), and how much the Raynaud's alone affected the use of hands today (VAS 0-10 cm scale).
The absolute change in highest pain score (11-point Likert scale) of weekly RP attacks from baseline to the end of each dosing period will be a secondary outcome variable. […] The variable will be calculated similar to frequency data as before.
The absolute change in average pain score (11-point Likert scale) of weekly RP attacks from baseline to the end of each Dosing Period will be a secondary outcome variable. […] The variable will be calculated similar to frequency data as before.

Series [2] deals with participants with SSc-RP. The experiment in a line: SHAQ Visual Analog Scale - Raynaud's. It is filed as in vivo, human. Set-up: Visual Analog Scale-Raynaud's, Baseline, Mean / Visual Analog Scale-Raynaud's, Baseline, Median / Visual Analog Scale-Raynaud's, In Clinic Visit (Day 12), Mean / Visual Analog Scale-Raynaud's, In Clinic Visit (Day 12), Median: scale not given here. The conditions noted are these: Modified ITT, Part A. The source says: The SHAQ includes a Raynaud's VAS, which will be reported at screening and each in-clinic visit. The absolute change in Raynaud-VAS, assessed by the participants response to the SHAQ question ‘In the past 7 days, how much have your Raynaud's interfered with your daily activities?’ at baseline and the end of each dosing period will be calculated similar to frequency data as before. […]

Series [3] relates to participants with SSc-RP. The experiment in a line: SHAQ Standard Disability Index. It is filed as in vivo, human. The conditions noted are these: Example 4, mITT Part A. From the text:
The standard, validated, patient reported outcome measures tool for SSc patients, the SHAQ, will be collected at the time points specified in the study schedules (FIG. 2 and FIG. 3A and/or FIG. 3B). To assess the participant's quality of life. The SHAQ includes a Raynaud's VAS that will also be reported separately.
The standard, validated, patient reported outcome measures tool for SSc patients, the Scleroderma Health Assessment Questionnaire (SHAQ), will be used to assess the participant qualify of life. Details are attached in the Appendix. The participant quality of life will be scored, and a disability index calculated for each questionnaire completed by the patient at Screening and each in-clinic visit. The absolute change in participant quality of life from baseline to the end of each dosing period will be calculated similar to frequency data as before.
The SHAQ is used to calculate a Disability Index to assess the participant qualify of life. The eight categories assessed by the Disability Index are 1) dressing and grooming, 2) arising, 3) eating, 4) walking, 5) hygiene, 6) reach, 7) grip, and 8) common daily activities. For each of these categories, patients report the amount of difficulty they have in performing two or three specific activities. […]

The conditions of series [4]: 10 mg, single oral dose, healthy volunteers; cited from earlier work.

Turning to `CN1CC(=O)N2[C@H](c3ccc4c(c3)OCO4)c3[nH]c4ccccc4c3C[C@@H]2C1=O` [Tadalafil], the “Baseline Average Pain Score [Mean (SD)]” value with participants with SSc-RP [1] is recorded as 5.47 (3.586). For the same compound, in the series on participants with SSc-RP [2] (Tadalafil 5 mg), the “Visual Analog Scale-Raynaud's, Baseline, Median” value is reported as 0.500; the “Visual Analog Scale-Raynaud's, Change from Baseline, Median” value (“Visual Analog Scale-Raynaud's, Change” for short) was −0.150; the “Visual Analog Scale-Raynaud's, In Clinic Visit (Day 12), Mean” value was 1.500; the “Visual Analog Scale-Raynaud's, In Clinic Visit (Day 12), Median” value came to 0.400. Also, in the series on participants with SSc-RP [2] (Tadalafil 5 mg), the “Visual Analog Scale-Raynaud's, Percent Change from Baseline, Mean” value is −20.78% and the “Visual Analog Scale-Raynaud's, Percent Change from Baseline, Median” value is reported as −37.35%.

In the case of `COCCOC(=O)C1=C(C)NC(C)=C(C(=O)OC/C=C/c2ccccc2)C1c1cccc([N+](=O)[O-])c1` (stereo not drawn) [Cilnidipine, 1,4-dihydro-2,6-dimethyl,4-(3-nitrophenyl)-3,5-pyridinedicarboxylic acid 2-methoxyethyl (2 E)-3-phenyl-2-propenyl ester], the “patient-reported SSc disease disability compared to placebo” value in the series on participants with SSc-RP [3] is “may reduce”. In addition, the “CL/F, Mean” value in series [4] was 304.7 L/h. In addition, in the series with participants with SSc-RP [2] (Cilnidipine 10 mg), the “Visual Analog Scale-Raynaud's, Baseline, Mean” value turned out to be 1.600; the “Visual Analog Scale-Raynaud's, Baseline, Median” value amounted to 1.000; the “Visual Analog Scale-Raynaud's, Change” value worked out at 0.350; the “Visual Analog Scale-Raynaud's, In Clinic Visit (Day 12), Median” value turned out to be 1.700. Also, in the series with participants with SSc-RP [2] (Cilnidipine 20 mg), the “Visual Analog Scale-Raynaud's, Baseline, Mean” value is 2.300; the “Visual Analog Scale-Raynaud's, Baseline, Median” value was 2.500; the “Visual Analog Scale-Raynaud's, Change” value is listed as −1.100; the “Visual Analog Scale-Raynaud's, In Clinic Visit (Day 12), Median” value stood at 1.100. Besides, the “Visual Analog Scale-Raynaud's, Percent Change from Baseline, Median” value with participants with SSc-RP [2] (Cilnidipine 20 mg) is on record as −44.00%.
